The record followed here is article PMC9658812, “New Pyrimidine-5-Carbonitriles as COX-2 Inhibitors: Design, Synthesis, Anticancer Screening, Molecular Docking, and In Silico ADME Profile Studies” (Molecules, 2022).

Each structure is given as a SMILES string. Where two headings read alike, the source gives them in different places. Some results are limits rather than exact numbers.

Data set [1] deals with WI-38 cells (normal cell derived from lung tissue). Nature of the data set: Cytotoxicity on non-tumorigenic WI-38 cell line. The conditions noted are these: Homo sapiens, WI-38, read-out: WI-38 IC50.
Method: (§1) Breast carcinoma (MCF-7), renal cell carcinoma (A498), lung cancer (A549), and liver carcinoma (HepG2) cell lines, in addition to non-tumorigenic WI-38 cell lines, were collected from the American Type Culture Collection. The cells were grown in DMEM (Invitrogen/Life Technologies) containing 1% penicillin-streptomycin, 10 µg/mL of insulin (Sigma), and 10% FBS (Hyclone).
(§2) To check the possible cellular toxicity, synthesized compounds were subjected to the MTT [3-(4,5-dimethylthiazol-2-yl)-2,5-diphenyltetrazolium bromide] assay against the MCF7, A549, A498, and HepG2 cell lines. […] Later, 2.0–3.0 mL of Trypsin EDTA solution was added into the flask containing the cell layers for 5–15 min to disperse the cell layer, which was observed through an inverted microscope. By gently pipetting, aspirated cells were added into a 6.0–8.0 mL growth medium. […] An amount of 20 μL of a 5-mg/mL MTT solution was applied after a 24-h drug-treatment period, and it was incubated for 4 h. To dissolve the produced purple formazan, each well received 100 μL of dimethyl sulfoxide (DMSO).
The subject of data set [2] is A498 cells (renal carcinoma). Nature of the data set: MTT cytotoxicity assay, A498. The conditions noted are these: for IC50: Homo sapiens, A498, 24 h, read-out: Cytotoxicity IC50 A498; for fold more cytotoxic than doxorubicin, A498: versus doxorubicin.
Method: as §1, §2
The test system of data set [3] is MCF7 cells (breast carcinoma). Nature of the data set: MTT cytotoxicity assay, MCF7. The conditions noted are these: for IC50: Homo sapiens, MCF7, 24 h, read-out: Cytotoxicity IC50 MCF7; for fold more cytotoxic than doxorubicin, MCF7: versus doxorubicin.
Method: as §1, §2
For data set [4], the system named is A549 cells (non-small-cell lung cancer). Nature of the data set: MTT cytotoxicity assay, A549. The conditions noted are these: for IC50: Homo sapiens, A549, 24 h, read-out: Cytotoxicity IC50 A549.
Method: as §1, §2
In data set [5] the test system is HepG2 cells (liver carcinoma). Nature of the data set: MTT cytotoxicity assay, HepG2. The conditions noted are these: for IC50: Homo sapiens, HepG2, 24 h, read-out: Cytotoxicity IC50 HepG2.
Method: as §1, §2
The target of data set [6] is T1, human COX-2 (Homo sapiens, UniProt P35354).
T1 construct: purchased Biovision, Zurich, Switzerland
T1 sequence (P35354 18-604): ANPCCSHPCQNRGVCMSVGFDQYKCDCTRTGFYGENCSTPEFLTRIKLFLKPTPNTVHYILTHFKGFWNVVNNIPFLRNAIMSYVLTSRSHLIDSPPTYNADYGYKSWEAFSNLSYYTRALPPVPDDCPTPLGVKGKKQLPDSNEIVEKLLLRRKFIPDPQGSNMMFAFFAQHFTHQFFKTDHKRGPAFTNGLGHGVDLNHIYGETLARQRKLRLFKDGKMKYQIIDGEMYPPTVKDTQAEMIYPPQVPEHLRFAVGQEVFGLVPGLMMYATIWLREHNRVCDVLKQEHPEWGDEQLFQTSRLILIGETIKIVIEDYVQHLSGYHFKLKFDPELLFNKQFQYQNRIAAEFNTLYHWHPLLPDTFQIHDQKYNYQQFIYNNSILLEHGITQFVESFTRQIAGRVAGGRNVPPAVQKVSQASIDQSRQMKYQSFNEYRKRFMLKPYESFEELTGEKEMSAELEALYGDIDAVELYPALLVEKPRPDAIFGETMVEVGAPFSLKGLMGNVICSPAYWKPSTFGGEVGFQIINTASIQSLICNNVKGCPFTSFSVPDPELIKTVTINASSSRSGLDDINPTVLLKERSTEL
Nature of the data set: COX-2 inhibition assay (fluorometric inhibitor screening kit). In kind it is biochemical. The conditions noted are these: for inhibition at 10 µM / inhibition at 1 µM / inhibition at 0.1 µM / inhibition at 0.01 µM / inhibition at 0.001 µM: read-out: COX-2 Inhibition (%); for IC50: human COX-2 assay kit, three experiments; for fold more potent than Nimesulide (COX-2 IC50): versus Nimesulide. An excerpt: Fluorometric inhibitor screening kits (Biovision, Zurich, Switzerland) were utilized for the COX-2 enzyme inhibition test, as described before.

[7] abbreviates: 10^−5 M, mean of three experiments ± SD.
[8] abbreviates: 10^−6 M, mean of three experiments ± SD.
[9] abbreviates: 10^−7 M, mean of three experiments ± SD.
[10] abbreviates: 10^−8 M, mean of three experiments ± SD.
[11] abbreviates: 10^−9 M, mean of three experiments ± SD.

Consider `COc1cccc2c1C(=O)c1c(O)c3c(c(O)c1C2=O)C[C@@](O)(C(=O)CO)C[C@@H]3O[C@H]1C[C@H](N)[C@H](O)[C@H](C)O1` [Doxorubicin, doxorubicin, reference compound], for which the IC50 in data set [1] amounted to 8830 ± 90 nM; in data set [2], 7 ± 0.23 nM; in data set [3], 9 ± 0.26 nM; in data set [4] it was 13 ± 0.42 nM; in data set [5] it was 25 ± 0.55 nM.

Compound `COc1ccc(-c2nc(NS(=O)(=O)c3ccc(C)cc3)nc(OC)c2C#N)cc1` [Compound 5b, N-(5-Cyano-4-methoxy-6-(4-methoxyphenyl)pyrimidin-2-yl)-4-methylbenzene-sulfonamide] gave a melting point of 283 to 285 °C. Moreover, the IC50 in data set [1] is 89600 ± 2750 nM. In data set [2], the IC50 was determined as 1 ± 0.05 nM and the “fold more cytotoxic than doxorubicin, A498” value is 7 fold. Besides, in data set [3], the IC50 was 2 ± 0.05 nM and the “fold more cytotoxic than doxorubicin, MCF7” value is given as 4.5 fold. Besides, in data set [4], the IC50 amounted to 3 ± 0.07 nM. Further, the “fold more cytotoxic than doxorubicin, A549” value in data set [4] (versus doxorubicin) is on record as 4.3 fold. For the same compound, the IC50 in data set [5] worked out at 12 ± 0.38 nM. For the same compound, the “fold more cytotoxic than doxorubicin, HepG2” value in data set [5] (versus doxorubicin) was 2.1 fold. Moreover, the inhibition at 10 µM in data set [6] (setting [7]) amounted to 40.2 ± 0.58%. For the same compound, the inhibition at 1 µM in data set [6] (setting [8]) came to 36.2 ± 0.44%. Also, in data set [6] (setting [9]), the inhibition at 0.1 µM was determined as 24.7 ± 0.31%. In addition, the inhibition at 0.01 µM in data set [6] (setting [10]) was found to be 75.2 ± 1.11%. For the same compound, the inhibition at 0.001 µM in data set [6] (setting [11]) was determined as 59.5 ± 1.04%. In data set [6], it took 180 ± 10 nM to reach half-maximal inhibition (IC50) and the “fold more potent than Nimesulide (COX-2 IC50)” value was approximately 9.3 fold.

For the compound `COc1ccc(-c2nc(NCc3nc4ccccc4[nH]3)nc(OC)c2C#N)cc1` [Compound 3a, 2-((1H-Benzo[d]imidazol-2-yl)methylamino)-4-methoxy-6-(4-methoxyphenyl)pyrimidine-5-carbonitrile], in data set [6] (setting [7]), the inhibition at 10 µM was found to be 71.2 ± 1.13%. In addition, in data set [6] (setting [8]), the inhibition at 1 µM amounted to 62.5 ± 0.95%. In data set [6] (setting [9]), the inhibition at 0.1 µM is 41.1 ± 0.55%. Also, in data set [6] (setting [10]), the inhibition at 0.01 µM stood at 32 ± 0.61%. Also, in data set [6] (setting [11]), the inhibition at 0.001 µM worked out at 22.3 ± 0.45%. Moreover, the IC50 in data set [6] was 230 ± 10 nM.

`COc1ccc(-c2nc(NS(=O)(=O)c3ccccc3)nc(OC)c2C#N)cc1` [Compound 5a, N-(5-Cyano-4-methoxy-6-(4-methoxyphenyl)pyrimidin-2-yl)benzenesulfonamide] registered a melting point of 241 to 243 °C. The inhibition at 10 µM in data set [6] (setting [7]) came to 40.1 ± 0.57%. Moreover, the inhibition at 1 µM in data set [6] (setting [8]) stood at 30.2 ± 0.49%. Also, in data set [6] (setting [9]), the inhibition at 0.1 µM stood at 23.6 ± 0.51%. The inhibition at 0.01 µM in data set [6] (setting [10]) amounted to 72.2 ± 1.31%. Also, the inhibition at 0.001 µM in data set [6] (setting [11]) was found to be 61.3 ± 0.84%. Also, it took 260 ± 10 nM to reach half-maximal inhibition in data set [6] (IC50).

The compound `COc1ccc(-c2nc(NCc3cc4ccccc4s3)nc(OC)c2C#N)cc1` [Compound 3d, 2-(Benzo[b]thiophen-2-ylmethylamino)-4-methoxy-6-(4-methoxyphenyl)pyrimidine-5-carbonitrile] registered a melting point of more than 300 °C. Besides, in data set [6] (setting [7]), the inhibition at 10 µM was found to be 38.3 ± 0.63%. In addition, the inhibition at 1 µM in data set [6] (setting [8]) was 31.6 ± 0.54%. Further, the inhibition at 0.1 µM in data set [6] (setting [9]) stood at 21.5 ± 0.49%. Moreover, the inhibition at 0.01 µM in data set [6] (setting [10]) is 70.3 ± 1.11%. In data set [6] (setting [11]), the inhibition at 0.001 µM was determined as 60.4 ± 0.98%. Besides, it took 340 ± 10 nM to reach half-maximal inhibition in data set [6] (IC50).

`COc1ccc(-c2nc(NS(=O)(=O)c3ccc(C(C)(C)C)cc3)nc(OC)c2C#N)cc1` [Compound 5c, 4-Tert-Butyl-N-(5-cyano-4-methoxy-6-(4-methoxyphenyl)pyrimidin-2-yl)benzene sulfonamide] yielded a melting point of 276 to 278 °C. Besides, in data set [6] (setting [7]), the inhibition at 10 µM was found to be 42.1 ± 0.93%. Moreover, in data set [6] (setting [8]), the inhibition at 1 µM stood at 28.7 ± 0.51%. The inhibition at 0.1 µM in data set [6] (setting [9]) was determined as 20.3 ± 0.52%. Moreover, the inhibition at 0.01 µM in data set [6] (setting [10]) turned out to be 73.2 ± 1.21%. For the same compound, the inhibition at 0.001 µM in data set [6] (setting [11]) turned out to be 64.3 ± 1.05%. Moreover, the IC50 in data set [6] came out at 260 ± 10 nM.

Compound `COc1ccc(-c2nc(NCc3nc4ccccc4s3)nc(OC)c2C#N)cc1` [Compound 3c, 2-(Benzo[d]thiazol-2-ylmethylamino)-4-methoxy-6-(4-methoxyphenyl)pyrimidine-5-carbonitrile] gave a melting point of more than 300 °C. Further, in data set [6] (setting [7]), the inhibition at 10 µM amounted to 74.3 ± 1.03%. In data set [6] (setting [8]), the inhibition at 1 µM stood at 57.1 ± 0.92%. For the same compound, the inhibition at 0.1 µM in data set [6] (setting [9]) came out at 37.6 ± 0.6%. For the same compound, the inhibition at 0.01 µM in data set [6] (setting [10]) came to 32.5 ± 0.53%. Besides, in data set [6] (setting [11]), the inhibition at 0.001 µM was 21 ± 0.4%. The compound also came in with an IC50 in data set [6] of 290 ± 10 nM.

In turn, `COc1ccc(-c2nc(NCc3nc4ccccc4o3)nc(OC)c2C#N)cc1` [Compound 3b, 2-(Benzo[d]oxazol-2-Ylmethylamino)-4-methoxy-6-(4-methoxyphenyl)pyrimidine-5-carbonitrile] came in with a melting point of more than 300 °C. The IC50 in data set [1] turned out to be 94700 ± 2500 nM. In addition, in data set [2], the IC50 was 4 ± 0.15 nM and the “fold more cytotoxic than doxorubicin, A498” value is recorded as “two-fold”. Further, in data set [3], the IC50 was determined as 3 ± 0.1 nM and the “fold more cytotoxic than doxorubicin, MCF7” value is on record as “three”. Moreover, the concentration for half-maximal inhibition (IC50) in data set [4] turned out to be 19 ± 0.52 nM. Further, the IC50 in data set [5] was found to be 22 ± 0.62 nM. Besides, the inhibition at 10 µM in data set [6] (setting [7]) worked out at 40.3 ± 0.62%. The inhibition at 1 µM in data set [6] (setting [8]) worked out at 33.3 ± 0.77%. Further, the inhibition at 0.1 µM in data set [6] (setting [9]) worked out at 22.4 ± 0.59%. The inhibition at 0.01 µM in data set [6] (setting [10]) amounted to 77.01 ± 0.03%. Also, the inhibition at 0.001 µM in data set [6] (setting [11]) came out at 61.3 ± 0.96%. Also, in data set [6], the IC50 was 200 ± 10 nM and the “fold more potent than Nimesulide (COX-2 IC50)” value is listed as “approximately 4.7 fold”.

Regarding `CS(=O)(=O)Nc1ccc([N+](=O)[O-])cc1Oc1ccccc1` [Nimesulide, reference compound], in data set [6], the inhibition at 0.001 µM turned out to be 17.1 ± 0.38%, the inhibition at 0.01 µM stood at 24 ± 0.42%, the inhibition at 0.1 µM was 29.4 ± 0.55% and the inhibition at 1 µM was 36.4 ± 0.84%. Moreover, in data set [6], the inhibition at 10 µM came to 69.5 ± 1.02%.
